# Laboratory results from publication PMC11003488 (Journal of Enzyme Inhibition and Medicinal Chemistry, 2023).
# “And” between values parts separate entries of the source, which are not always exact repeats. Identical values can stand only once. Like-named read-outs stand apart in the source and are kept apart here.
# Legend:
# HT29 = experiment: NCI-60 SRB growth inhibition, one-dose and five-dose; assay type: cell-based; details: Homo sapiens
# OVCAR-4 = experiment: as above; assay type: cell-based; details: Homo sapiens
# KM12 = experiment: as above; assay type: cell-based; details: Homo sapiens
# ACHN = experiment: as above; assay type: cell-based; details: Homo sapiens
# Bax [1] = experiment: Gene expression by RT-qPCR in HCT-116; details: HCT-116, 24 h
# [2] = tested on: Ovarian cancer cell lines; experiment: NCI-60 SRB growth inhibition, subpanel; assay type: cell-based, human; details: for GI50: Homo sapiens
# MDA-MB-435 = experiment: NCI-60 SRB growth inhibition, one-dose and five-dose; assay type: cell-based; details: Homo sapiens
# NCI-H226 = experiment: as above; assay type: cell-based; details: Homo sapiens
# COLO 205 = experiment: as above; assay type: cell-based; details: Homo sapiens
# Colon cancer cell lines = experiment: NCI-60 SRB growth inhibition, subpanel; assay type: cell-based, human; details: for GI50: Homo sapiens
# NSCLC cell lines = experiment: NCI-60 SRB growth inhibition, subpanel; assay type: cell-based, human; details: for GI50: Homo sapiens
# MALME-3M = experiment: NCI-60 SRB growth inhibition, one-dose and five-dose; assay type: cell-based; details: Homo sapiens
# [3] = tested on: Prostate cancer cell lines; experiment: NCI-60 SRB growth inhibition, subpanel; assay type: cell-based, human; details: for GI50: Homo sapiens
# Melanoma cell lines = experiment: NCI-60 SRB growth inhibition, subpanel; assay type: cell-based, human; details: for GI50: Homo sapiens
# Breast cancer cell lines = experiment: NCI-60 SRB growth inhibition, subpanel; assay type: cell-based, human; details: for GI50: Homo sapiens
# HCT-116 (colon cancer) [4] = experiment: Cell cycle analysis by PI flow cytometry; assay type: cell-based, human; details: HCT-116, 24 h, IC50 of compound
# HOP-62 = experiment: NCI-60 SRB growth inhibition, one-dose and five-dose; assay type: cell-based; details: Homo sapiens
# CNS cancer cell lines = experiment: NCI-60 SRB growth inhibition, subpanel; assay type: cell-based, human; details: for GI50: Homo sapiens
# Human VEGFR-2 = Human VEGFR-2 (Homo sapiens, UniProt P35968); experiment: VEGFR-2 inhibition assay; assay type: biochemical
# CCRF-CEM = experiment: NCI-60 SRB growth inhibition, one-dose and five-dose; assay type: cell-based; details: Homo sapiens
# UO-31 = experiment: as above; assay type: cell-based; details: Homo sapiens
# Caspase-3 [5] = experiment: Protein level by ELISA assay in HCT-116; assay type: cell-based, human; details: HCT-116, IC50 of compound, 24 h, vs 0.1% DMSO
# [6] = tested on: WI-38 normal human fibroblast cells; experiment: Cytotoxicity towards normal fibroblasts, safety index; assay type: cell-based; details: WI-38 versus cancer cell lines
# [7] = as above; assay type: cell-based, human; details: human, WI-38 normal fibroblast cells
# MDA-MB-231/ATCC = experiment: NCI-60 SRB growth inhibition, one-dose and five-dose; assay type: cell-based; details: Homo sapiens
# DU-145 = experiment: as above; assay type: cell-based; details: Homo sapiens
# Leukaemia cell lines = experiment: NCI-60 SRB growth inhibition, subpanel; assay type: cell-based, human; details: for GI50: Homo sapiens
# HCT-116 (colon cancer) [8] = experiment: Apoptosis AV/PI assay by flow cytometry; assay type: cell-based, human; details: HCT-116, 24 h, IC50 of compound
# Renal cancer cell lines = experiment: NCI-60 SRB growth inhibition, subpanel; assay type: cell-based, human; details: for GI50: Homo sapiens
# MDA-MB-468 = experiment: NCI-60 SRB growth inhibition, one-dose and five-dose; assay type: cell-based; details: Homo sapiens
# Caspase-3 [9] = experiment: Gene expression by RT-qPCR in HCT-116; details: HCT-116, 24 h, IC50 of compound; vs 0.1% DMSO; 2^-ΔΔct
# Bax [10] = experiment: Protein level by ELISA assay in HCT-116; assay type: cell-based, human; details: HCT-116, IC50 of compound, 24 h, vs 0.1% DMSO
# TNF-α = experiment: Gene expression by RT-qPCR in HCT-116; details: HCT-116, 24 h, IC50 of compound; vs 0.1% DMSO; 2^-ΔΔct
# SK-OV-3 = experiment: NCI-60 SRB growth inhibition, one-dose and five-dose; assay type: cell-based; details: Homo sapiens
# LOX IMVI = experiment: as above; assay type: cell-based; details: Homo sapiens
# UACC-257 = experiment: as above; assay type: cell-based; details: Homo sapiens
# SK-MEL-5 = experiment: as above; assay type: cell-based; details: Homo sapiens
# SF-295 = experiment: as above; assay type: cell-based; details: Homo sapiens
# [11] = read-out: percent growth inhibition
# Sequence of Human VEGFR-2 (P35968 20-1356): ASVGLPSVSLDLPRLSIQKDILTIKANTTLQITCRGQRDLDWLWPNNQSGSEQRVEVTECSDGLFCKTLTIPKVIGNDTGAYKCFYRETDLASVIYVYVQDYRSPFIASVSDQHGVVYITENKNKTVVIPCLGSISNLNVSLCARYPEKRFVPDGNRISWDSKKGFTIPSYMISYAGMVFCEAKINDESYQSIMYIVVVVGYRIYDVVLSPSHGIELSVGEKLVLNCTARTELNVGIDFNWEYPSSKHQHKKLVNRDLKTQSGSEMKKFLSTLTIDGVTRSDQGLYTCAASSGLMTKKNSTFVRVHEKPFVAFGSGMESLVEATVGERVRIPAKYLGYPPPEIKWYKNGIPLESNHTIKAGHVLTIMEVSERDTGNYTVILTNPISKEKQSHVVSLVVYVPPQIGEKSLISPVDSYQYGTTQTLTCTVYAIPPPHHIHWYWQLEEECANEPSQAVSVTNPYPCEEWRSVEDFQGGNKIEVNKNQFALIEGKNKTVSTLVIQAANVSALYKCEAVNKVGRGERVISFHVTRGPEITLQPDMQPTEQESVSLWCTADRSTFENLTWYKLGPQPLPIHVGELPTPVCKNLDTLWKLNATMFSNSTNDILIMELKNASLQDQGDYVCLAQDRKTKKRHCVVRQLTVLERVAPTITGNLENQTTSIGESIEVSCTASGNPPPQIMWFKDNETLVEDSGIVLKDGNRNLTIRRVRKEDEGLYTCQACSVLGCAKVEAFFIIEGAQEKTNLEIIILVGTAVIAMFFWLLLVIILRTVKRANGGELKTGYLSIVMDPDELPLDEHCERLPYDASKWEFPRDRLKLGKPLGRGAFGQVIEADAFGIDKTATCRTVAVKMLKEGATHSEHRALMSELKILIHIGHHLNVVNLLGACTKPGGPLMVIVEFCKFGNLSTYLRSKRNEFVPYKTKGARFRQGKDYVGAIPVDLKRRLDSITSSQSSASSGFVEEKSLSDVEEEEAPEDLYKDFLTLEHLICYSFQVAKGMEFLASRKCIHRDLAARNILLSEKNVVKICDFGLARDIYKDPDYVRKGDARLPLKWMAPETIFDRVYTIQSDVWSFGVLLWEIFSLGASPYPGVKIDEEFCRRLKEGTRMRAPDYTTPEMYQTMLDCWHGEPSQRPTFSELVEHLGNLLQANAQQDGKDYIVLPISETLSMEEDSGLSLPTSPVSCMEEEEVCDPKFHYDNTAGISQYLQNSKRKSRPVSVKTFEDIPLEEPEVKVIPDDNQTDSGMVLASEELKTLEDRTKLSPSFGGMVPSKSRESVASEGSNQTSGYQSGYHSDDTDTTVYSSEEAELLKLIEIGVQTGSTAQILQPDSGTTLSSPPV
smiles,measurement,setting,value
"COc1ccc(CNc2cccc(C(=O)/C=C/c3ccc(NC(C)=O)cc3)c2)cc1OC [Compound 5h, (E)-N-(4–(3-(3-((3,4-dimethoxybenzyl)amino)phenyl)-3-oxoprop-1-en-1-yl)phenyl) acetamide]",GI50,HT29; HT-29,3.46 µM
same,inhibition at 10 µM,"HT29; HT-29, read-out: percent growth inhibition",172%
same,GI50,OVCAR-4; OVCAR-4,3.09 µM
same,inhibition at 10 µM,"OVCAR-4; OVCAR-4, read-out: percent growth inhibition",89.4%
same,GI50,KM12; KM12,1.94 µM
same,inhibition at 10 µM,"KM12; KM12, read-out: percent growth inhibition",159%
same,GI50,ACHN,2.07 µM
same,inhibition at 10 µM,ACHN; [11],162%
same,Bax gene expression fold change,"Bax [1]; IC50 of compound, vs 0.1% DMSO, 2^-ΔΔct",30.06 ± 3.4 fold
same,Bax/Bcl-2 ratio,Bax [1]; ratio of gene expression fold changes,31.6
same,GI50,[2]; read-out: GI50 MG-MID,5.75 µM
same,GI50,[2]; read-out: MG-MID GI50,5.75 µM
same,SI (Selectivity Index),[2]; full panel MG-MID / Ovarian Cancer subpanel MG-MID,0.78
same,GI50,MDA-MB-435; MDA-MB-435,2.22 µM
same,inhibition at 10 µM,"MDA-MB-435; MDA-MB-435, read-out: percent growth inhibition",133%
same,GI50,NCI-H226; NCI-H226,12.4 µM
same,inhibition at 10 µM,"NCI-H226; NCI-H226, read-out: percent growth inhibition",21.2%
same,GI50,COLO 205; COLO 205,9.39 µM
same,inhibition at 10 µM,"COLO 205; COLO 205, read-out: percent growth inhibition",145%
same,GI50,Colon cancer cell lines; read-out: GI50 MG-MID,3.24 µM
same,GI50,Colon cancer cell lines; read-out: MG-MID GI50,3.24 µM
same,SI (Selectivity Index),Colon cancer cell lines; full panel MG-MID / Colon Cancer subpanel MG-MID,1.38
same,GI50,NSCLC cell lines; read-out: GI50 MG-MID,8.91 µM
same,GI50,NSCLC cell lines; read-out: MG-MID GI50,8.91 µM
same,SI (Selectivity Index),NSCLC cell lines; full panel MG-MID / NSCLC subpanel MG-MID,0.50
same,GI50,MALME-3M,3.5 µM
same,inhibition at 10 µM,MALME-3M; [11],151%
same,GI50,[3]; read-out: GI50 MG-MID,3.53 µM
same,GI50,[3]; read-out: MG-MID GI50,3.53 µM
same,SI (Selectivity Index),[3]; full panel MG-MID / Prostatic Cancer subpanel MG-MID,1.27
same,GI50,Melanoma cell lines; read-out: GI50 MG-MID,4.44 µM
same,GI50,Melanoma cell lines; read-out: MG-MID GI50,4.44 µM
same,SI (Selectivity Index),Melanoma cell lines; full panel MG-MID / Melanoma subpanel MG-MID,1.01
same,GI50,Breast cancer cell lines; read-out: GI50 MG-MID,2.91 µM
same,GI50,Breast cancer cell lines; read-out: MG-MID GI50,2.91 µM
same,SI (Selectivity Index),Breast cancer cell lines; full panel MG-MID / Breast Cancer subpanel MG-MID,1.54
same,% G0-G1,HCT-116 (colon cancer) [4],35.12 ± 3.5%
same,% G2M,HCT-116 (colon cancer) [4],3.21 ± 1.1%
same,% S,HCT-116 (colon cancer) [4],4.91 ± 1.1%
same,% SubG0-G1,HCT-116 (colon cancer) [4],56.87 ± 7.7%
same,GI50,HOP-62; HOP-62,7.25 µM
same,inhibition at 10 µM,"HOP-62; HOP-62, read-out: percent growth inhibition",62.3%
same,GI50,CNS cancer cell lines; read-out: GI50 MG-MID,5.22 µM
same,GI50,CNS cancer cell lines; read-out: MG-MID GI50,5.22 µM
same,SI (Selectivity Index),CNS cancer cell lines; full panel MG-MID / CNS Cancer subpanel MG-MID,0.86
same,IC50,Human VEGFR-2,0.31 ± 0.015 µM
same,GI50,CCRF-CEM,2.74 µM
same,inhibition at 10 µM,CCRF-CEM; [11],84.5%
same,GI50,UO-31; UO-31,3 µM
same,inhibition at 10 µM,"UO-31; UO-31, read-out: percent growth inhibition",160%
same,caspase-3 protein level,Caspase-3 [5],43.12 fold
same,Safety index,[6],>1
same,GI50 at 48 h,[7],> 100 µM
same,GI50,MDA-MB-231/ATCC; MDA-MB-231,2.84 µM
same,inhibition at 10 µM,"MDA-MB-231/ATCC; MDA-MB-231, read-out: percent growth inhibition",89.4%
same,GI50,DU-145; DU-145,4.25 µM
same,inhibition at 10 µM,"DU-145; DU-145, read-out: percent growth inhibition",75.4%
same,GI50,Leukaemia cell lines; read-out: GI50 MG-MID,2.36 µM
same,GI50,Leukaemia cell lines; read-out: MG-MID GI50,2.36 µM
same,SI (Selectivity Index),Leukaemia cell lines; full panel MG-MID / leukaemia subpanel MG-MID,1.90
same,% Early apoptotic cells (LR),HCT-116 (colon cancer) [8],0.24 ± 0.01%
same,% Late apoptotic cells (UL),HCT-116 (colon cancer) [8],64.62 ± 10.1%
same,% Necrotic cells (UR),HCT-116 (colon cancer) [8],2.25 ± 0.71%
same,% Viable cells (LL),HCT-116 (colon cancer) [8],32.89 ± 3.8%
same,GI50,Renal cancer cell lines; read-out: GI50 MG-MID,3.99 µM
same,GI50,Renal cancer cell lines; read-out: MG-MID GI50,3.99 µM
same,SI (Selectivity Index),Renal cancer cell lines; full panel MG-MID / Renal Cancer subpanel MG-MID,1.12
same,GI50,MDA-MB-468; MDA-MB-468,2.44 µM
same,inhibition at 10 µM,"MDA-MB-468; MDA-MB-468, read-out: percent growth inhibition",166%
same,Caspase-3 gene expression fold change,Caspase-3 [9],0.002 fold
same,Bax protein level,Bax [10],2.96 fold
same,TNF-α gene expression fold change,TNF-α,2.2 fold and 2.20 ± 0.17 fold
same,GI50,SK-OV-3; SK-OV-3,20 µM
same,inhibition at 10 µM,"SK-OV-3; SK-OV-3, read-out: percent growth inhibition",75.5%
same,GI50,LOX IMVI,1.8 µM
same,inhibition at 10 µM,LOX IMVI; [11],181%
same,GI50,UACC-257; UACC-257,9.28 µM
same,inhibition at 10 µM,"UACC-257; UACC-257, read-out: percent growth inhibition",61.5%
same,GI50,SK-MEL-5; SK-MEL-5,4.13 µM
same,inhibition at 10 µM,"SK-MEL-5; SK-MEL-5, read-out: percent growth inhibition",126%
same,GI50,SF-295; SF-295,7.83 µM
same,inhibition at 10 µM,"SF-295; SF-295, read-out: percent growth inhibition",84.1%
